This note sets out measurements from patent publication US20150175584A1, “Quinazolin-THF-amines as PDE1 inhibitors” (H. LUNDBECK A/S, priority 2013, published 2015).

SMILES strings stand for the structures.

Common to all, as to format: biochemical
What all share (details): 15 nM tritium labelled cAMP, 1 h at room temperature, SPA beads

In assay [1] the target is PDE1B (Homo sapiens, UniProt Q01064). The assay is described as follows: PDE1 Inhibition Assay, PDE1B (SPA). On the procedure: (§1) PDE1A, PDE1B and PDE1C assays were performed as follows: the assays was performed in 60 μL samples containing a fixed amount of the PDE1 enzym1 (sufficient to convert 20-25% of the cyclic nucleotide substrate), a buffer (50 mM HEPES pH 7.6; 10 mM MgCl2; 0.02% Tween20), 0.1 mg/ml BSA, 15 nM tritium labelled cAMP and varying amounts of inhibitors. Reactions were initiated by addition of the cyclic nucleotide substrate, and reactions were allowed to proceed for 1 h at room temperature before being terminated through mixing with 20 μL (0.2 mg) yttrium silicate SPA beads (PerkinElmer). The beads were allowed to settle for 1 h in the dark before the plates were counted in a Wallac 1450 Microbeta counter. The measured signals were converted to activity relative to an uninhibited control (100%) and IC50 values were calculated using XIFit (model 205, IDBS).
Chain of PDE1B (Q01064 whole entry): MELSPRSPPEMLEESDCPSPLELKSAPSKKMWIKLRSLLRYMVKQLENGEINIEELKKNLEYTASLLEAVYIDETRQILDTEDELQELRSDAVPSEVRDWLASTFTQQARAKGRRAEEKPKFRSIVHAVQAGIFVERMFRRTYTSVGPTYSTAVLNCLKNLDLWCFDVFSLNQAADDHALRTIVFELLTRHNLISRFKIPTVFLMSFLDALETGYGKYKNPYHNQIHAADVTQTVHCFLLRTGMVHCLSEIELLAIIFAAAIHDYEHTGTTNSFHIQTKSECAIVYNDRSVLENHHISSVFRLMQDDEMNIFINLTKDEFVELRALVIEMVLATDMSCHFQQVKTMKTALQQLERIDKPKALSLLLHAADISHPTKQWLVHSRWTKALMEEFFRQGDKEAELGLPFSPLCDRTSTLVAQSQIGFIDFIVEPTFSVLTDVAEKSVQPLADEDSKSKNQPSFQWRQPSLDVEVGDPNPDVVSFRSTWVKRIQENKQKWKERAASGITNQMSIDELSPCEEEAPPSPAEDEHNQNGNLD

In assay [2] the target is PDE1A (Homo sapiens, UniProt P54750). Put plainly: PDE1 Inhibition Assay, PDE1A (SPA). As to the method:
as §1

Assay [3] addresses PDE1C (Homo sapiens, UniProt Q14123). The assay is described as follows: PDE1 Inhibition Assay, PDE1C (SPA). As to the method:
as §1

Chain of PDE1C (Q14123 whole entry): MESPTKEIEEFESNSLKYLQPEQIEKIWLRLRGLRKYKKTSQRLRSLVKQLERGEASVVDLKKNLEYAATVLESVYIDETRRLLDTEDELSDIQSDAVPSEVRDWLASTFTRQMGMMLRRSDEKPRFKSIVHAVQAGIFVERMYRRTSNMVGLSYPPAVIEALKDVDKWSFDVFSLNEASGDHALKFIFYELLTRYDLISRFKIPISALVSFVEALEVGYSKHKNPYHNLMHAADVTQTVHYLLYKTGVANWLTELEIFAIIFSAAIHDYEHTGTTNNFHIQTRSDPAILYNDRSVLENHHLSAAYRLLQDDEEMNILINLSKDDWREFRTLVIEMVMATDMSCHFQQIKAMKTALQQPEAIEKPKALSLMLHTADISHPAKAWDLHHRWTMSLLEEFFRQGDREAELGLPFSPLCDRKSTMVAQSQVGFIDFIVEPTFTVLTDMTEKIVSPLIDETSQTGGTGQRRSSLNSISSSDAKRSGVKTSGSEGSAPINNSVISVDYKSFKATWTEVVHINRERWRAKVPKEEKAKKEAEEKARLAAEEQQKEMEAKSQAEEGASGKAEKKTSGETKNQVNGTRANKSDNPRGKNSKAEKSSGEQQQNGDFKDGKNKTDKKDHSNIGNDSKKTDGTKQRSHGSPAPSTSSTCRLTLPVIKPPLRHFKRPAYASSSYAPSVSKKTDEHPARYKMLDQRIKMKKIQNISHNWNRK
Chain of PDE1A (P54750 whole entry): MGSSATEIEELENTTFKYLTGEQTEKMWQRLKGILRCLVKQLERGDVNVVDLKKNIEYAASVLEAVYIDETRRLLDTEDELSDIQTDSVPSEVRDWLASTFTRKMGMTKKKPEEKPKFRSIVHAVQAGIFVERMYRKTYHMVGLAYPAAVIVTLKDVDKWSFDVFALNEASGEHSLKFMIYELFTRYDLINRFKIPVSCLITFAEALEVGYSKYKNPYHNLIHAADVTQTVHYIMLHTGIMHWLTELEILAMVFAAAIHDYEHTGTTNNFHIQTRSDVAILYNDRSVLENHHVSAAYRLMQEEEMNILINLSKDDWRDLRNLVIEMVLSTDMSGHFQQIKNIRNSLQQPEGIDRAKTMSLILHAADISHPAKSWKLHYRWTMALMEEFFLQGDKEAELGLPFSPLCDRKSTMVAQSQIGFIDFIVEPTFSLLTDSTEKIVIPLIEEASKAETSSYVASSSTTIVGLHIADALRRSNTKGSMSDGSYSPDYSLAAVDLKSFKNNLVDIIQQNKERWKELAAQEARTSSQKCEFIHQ

As usually defined, the IC50 is the midpoint of a concentration-inhibition curve. `COc1ccc2c(N[C@@H]3COC[C@H]3O)ncnc2c1OC` (relative stereo) [Compound 18, trans-4-((7,8-dimethoxyquinazolin-4-yl)amino)tetrahydrofuran-3-ol]: the IC50 worked out at 1300 nM in assay [1], 2300 nM in assay [2] and 2600 nM in assay [3].

Consider `CCN(c1ncnc2c(OC)c(OC)ccc12)[C@H]1CCOC1` [Compound 8, (S)-N-ethyl-7,8-dimethoxy-N-(tetrahydrofuran-3-yl)quinazolin-4-amine], for which the IC50 stood at 250 nM in assay [1], 480 nM in assay [2] and 510 nM in assay [3].

Turning to `COc1ccc2c(N(Cc3ccccc3)[C@H]3CCOC3)ncnc2c1OC` [Compound 10, (S)-N-benzyl-7,8-dimethoxy-N-(tetrahydrofuran-3-yl)quinazolin-4-amine], the results for the IC50 in assay [1], in assay [2] and in assay [3] were 360 nM, 820 nM and 1400 nM, respectively.

As to `COc1ccc2c(N(C)[C@@H]3CCOC3)ncnc2c1OC` (single isomer, unassigned) [4 Stereoisomer 1], the results for the IC50 in assay [1], in assay [2] and in assay [3] were 80 nM, 370 nM and 140 nM, respectively.

Consider `COc1ccc2c(NC3(C)CCOC3C)ncnc2c1OC` (single isomer, unassigned) [5 Stereoisomer 4], for which the IC50 in assay [1] is 15 nM; in assay [2], 77 nM; in assay [3] it was 140 nM.
